Reference: the NIST ThermoML archive (doi:10.1016/j.jct.2009.11.011)
“And” between values parts separate entries of the source, which are not always exact repeats. Identical values can stand only once. ± gives the expanded uncertainty stated by the source.

Assays:
[1] = for vapor or sublimation pressure: Liquid, Ebulliometric method (Recirculating still)
[2] = Molar enthalpy of transition or fusion; settings: Crystal; Adiabatic calorimetry
[3] = molar heat capacity at saturation pressure

c1cnc2c(c1)ccc1cccnc12 [1,10-phenanthroline]
[1]
Settings	vapor or sublimation pressure
523.28 K	2 ± 0.01 kPa and 2.001 ± 0.01 kPa
531.9 K	2.668 ± 0.011 kPa
554.04 K	5.325 ± 0.011 kPa
568.22 K	8.008 ± 0.012 kPa
578.69 K	10.65 ± 0.012 kPa
587.24 K	13.33 ± 0.013 kPa
595.98 K	16.64 ± 0.014 kPa
603.36 K	19.95 ± 0.015 kPa

Settings	Triple point temperature, Crystal [K]	molar heat capacity, 460 K [J/K/mol]	molar heat capacity, 480 K [J/K/mol]	molar heat capacity, 500 K [J/K/mol]	molar heat capacity, 520 K [J/K/mol]	molar heat capacity, 540 K [J/K/mol]	molar heat capacity, 560 K [J/K/mol]	molar heat capacity, 580 K [J/K/mol]	molar heat capacity, 600 K [J/K/mol]
[1], Adiabatic calorimetry	391.71 ± 0.05	–	–	–	–	–	–	–	–
[3], Liquid	–	337.52 ± 3.4	346.29 ± 3.5	355 ± 3.6	363.5 ± 3.7	371.9 ± 3.7	380.1 ± 3.8	388.2 ± 3.9	396 ± 4

Settings	Molar enthalpy of transition or fusion [kcal/mol]
[2]	3.705 ± 0.00406

molar heat capacity [J/K/mol], [3], Vacuum adiabatic calorimetry
Settings	Crystal	Liquid
5 K	1.26 ± 0.02	–
5.659 K	1.78 ± 0.03	–
6.394 K	2.35 ± 0.03	–
7.405 K	3.18 ± 0.04	–
8.419 K	4.13 ± 0.05	–
9.46 K	5.19 ± 0.06	–
10 K	5.74 ± 0.06	–
10.55 K	6.31 ± 0.06	–
11.75 K	7.62 ± 0.07	–
13.08 K	9.121 ± 0.07	–
14.53 K	10.68 ± 0.083	–
16.13 K	12.55 ± 0.091	–
17.88 K	14.51 ± 0.1	–
19.8 K	16.6 ± 0.11	–
20 K	16.82 ± 0.11	–
21.93 K	18.87 ± 0.11	–
24.3 K	21.41 ± 0.11	–
26.92 K	24.1 ± 0.11	–
29.85 K	26.95 ± 0.11	–
30 K	27.1 ± 0.1	–
33.1 K	29.99 ± 0.1	–
36.75 K	33.23 ± 0.11	–
40 K	35.93 ± 0.12	–
40.82 K	36.58 ± 0.12	–
45.34 K	40.14 ± 0.12	–
50 K	43.64 ± 0.12	–
50.36 K	43.96 ± 0.12	–
55.93 K	47.63 ± 0.13	–
57.69 K	48.9 ± 0.14	–
60 K	50.34 ± 0.14	–
60.42 K	50.6 ± 0.14	–
63.28 K	52.36 ± 0.14	–
66.47 K	54.41 ± 0.15	–
69.78 K	56.39 ± 0.15	–
70 K	56.51 ± 0.15	–
73.24 K	58.45 ± 0.16	–
76.94 K	60.52 ± 0.16	–
80 K	62.29 ± 0.17	–
80.6 K	62.63 ± 0.17	–
84.91 K	65 ± 0.17	–
88.8 K	67.21 ± 0.17	–
90 K	67.87 ± 0.27	–
97.84 K	72.09 ± 0.27	–
100 K	73.23 ± 0.27	–
100.26 K	73.38 ± 0.27	–
109.98 K	78.65 ± 0.28	–
119.96 K	84.22 ± 0.28	–
120 K	84.24 ± 0.28	–
131.01 K	90.44 ± 0.29	–
140 K	95.58 ± 0.3	–
143.07 K	97.35 ± 0.3	–
155.1 K	104.48 ± 0.31	–
160 K	107.41 ± 0.31	–
167.1 K	111.7 ± 0.32	–
179.08 K	119.1 ± 0.32	–
180 K	119.68 ± 0.32	–
191.08 K	126.69 ± 0.32	–
200 K	132.42 ± 0.33	–
203.14 K	134.46 ± 0.33	–
215.25 K	142.45 ± 0.34	–
220 K	145.57 ± 0.35	–
227.38 K	150.47 ± 0.35	–
239.55 K	158.67 ± 0.36	–
240 K	158.97 ± 0.36	–
251.77 K	167.01 ± 0.37	–
260 K	172.69 ± 0.37	–
264.02 K	175.49 ± 0.37	–
276.3 K	183.86 ± 0.38	–
280 K	186.36 ± 0.39	–
288.6 K	192.35 ± 0.39	–
289.46 K	192.8 ± 0.39	–
298.15 K	198.74 ± 0.4	–
300 K	200 ± 0.4	–
300.24 K	200.19 ± 0.4	–
312.29 K	208.49 ± 0.41	–
320 K	213.76 ± 0.42	–
324.53 K	216.87 ± 0.42	–
336.89 K	225.26 ± 0.42	–
336.98 K	225.23 ± 0.42	–
340 K	227.24 ± 0.42	–
348.97 K	233.42 ± 0.43	–
349.32 K	233.65 ± 0.43	–
360 K	240.63 ± 0.44	–
361.05 K	241.49 ± 0.44	–
373.19 K	249.78 ± 0.45	–
375.19 K	–	297.88 ± 0.5
380 K	253.68 ± 0.46	300.22 ± 0.5
381.3 K	256.64 ± 0.46	–
382.84 K	–	301.57 ± 0.5
383.75 K	260.04 ± 0.46	–
391.52 K	–	305.71 ± 0.51
391.71 K	261.46 ± 0.47	305.81 ± 0.51
397.93 K	–	308.79 ± 0.51
400 K	–	309.76 ± 0.51
400.3 K	–	309.93 ± 0.51
402.69 K	–	311.03 ± 0.51
404.9 K	–	312.06 ± 0.52
413.55 K	–	316.13 ± 0.52
416.42 K	–	317.49 ± 0.52
420 K	–	319.14 ± 0.52
429.03 K	–	323.3 ± 0.52
439.59 K	–	328.19 ± 0.53
440 K	–	328.39 ± 0.53
